Results published in US5032398A, “Selective modification of the catalytic subunit of pertussis toxin” (priority 1986, dated 1991).
Values joined by “and” are separate entries in the source; they are usually repeats but may differ in a detail not shown here. Equal entries are not always repeated. Where two headings read alike, the source gives them in different places.

Assays:
pertussis toxin [1] = target: T1, pertussis toxin (Bordetella pertussis, UniProt P04977); experiment: Inactivation of NADase activity by iodoacetate after different activator combinations (Example Seven); format: biochemical; conditions: additions to first incubation only (DTT 1 mM, ATP 1 mM, CHAPS 1%), second incubation none
T1 sequence (P04977 35-269 limits assumed): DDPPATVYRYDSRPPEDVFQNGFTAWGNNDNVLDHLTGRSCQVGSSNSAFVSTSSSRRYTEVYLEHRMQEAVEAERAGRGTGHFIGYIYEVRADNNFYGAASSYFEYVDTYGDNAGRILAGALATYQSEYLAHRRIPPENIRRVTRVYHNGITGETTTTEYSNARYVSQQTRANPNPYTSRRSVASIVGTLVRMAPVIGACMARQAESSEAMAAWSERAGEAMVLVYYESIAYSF
Method: (§1) Pertussis toxin was incubated first at 37° C. for fifteen minutes in […] buffer A (100 mM Tris-HCl, pH 8.0 with 1 mM NaEDTA). EDTA was added to chelate divalent cations, which may promote oxidation of free --SH groups. During this incubation, DTT and ATP were present in concentrations of 1 mM each, and CHAPS was present in a concentration of 1 weight percent. Labelled iodoacetate was then added ([…], 12.5 mM), and the tube incubated on ice for twenty hours. The sample was then mixed with sodium dodecylsulfate and β-mercaptoethanol, heated at 95° C. for one minute, and electrophoresed. After electrophoresis, the gel was fixed, treated with Fluorohance (Research Products International), dried and used to expose x-ray film.
(§2) Pertussis toxin was incubated at 37° C. for fifteen minutes as described in Example Six, and then a second incubation was begun by adding 10 μl buffer A with or without 12.5 mM iodoacetate, mixing the contents of the tube and lowering the temperature to 30° C. After fifteen minutes, the tubes were shifted to an ice bath for ten minutes. A third incubation was then begun by adding 10 μl buffer A containing 200 mM DTT to those tubes containing iodoacetate to scavenge the iodoacetate. To those tubes not containing iodoacetate during the second incubation, a mixture of 200 mM DTT and 12.5 mM iodoacetate in buffer A, previously incubated for an hour on ice, was added. The third incubation was continued for one hour on ice.
(§3) The contents of each tube were then assayed for NADase activity by adding 40 μl of a reaction mix consisting of buffer A containing carbon-14 labelled NAD (final concentration in the 100 μl final volume was 25 μM), and 50 mM sodium chloride. Different reaction mixtures with various additions were used, so that in all tubes the final concentration of ATP was 1 mM and CHAPS was 1 weight percent. The assay was conducted at 37° C. for sixty minutes, and the released labelled nicotinimide was isolated and counted. The iced controls were formed by incubating pertussis toxin (1 μg) on ice in 10 mM sodium phosphate (pH 7) and 50 mM sodium chloride during the first three incubations. […] The first three incubations were done under a nitrogen atmosphere using degassed conditions, and the second and third incubations were done under subdued light.

pertussis toxin [2] = target: T1, pertussis toxin; experiment: NADase activity in the presence of sulfhydryl reducing agents (Example Five); format: biochemical; conditions: 10 mM DTT without ATP
pertussis toxin [3] = target: T1, pertussis toxin; experiment: as above; format: biochemical
Method: In the description herein, activation constants for the substances may be expressed by a numerical value (A0.5) by using an NADase assay.
(§4) The pertussis toxin in the Examples comprised 50 μg of the toxin in a 500 μl solution of 10 mM sodium phosphate-50 mM sodium chloride-water solution having a pH of 7. The enzymatic activity was detected as the hydrolysis of nicotinamide labelled NAD and ion-exchange column chromatography to resolve the product from the substrate. Unless otherwise noted, the assay was initiated by adding 0.5 to 2.5 μg of the toxin to a reaction mixture for a final volume of 100 μl. The NADase reaction was terminated by adding 0.85 ml of ice-cold water. The entire 0.95 ml was then pipetted into a QAE-Sephadex column (chloride form) and the labelled nicotinamide eluted with 3 ml of water directly into a scintillation vial and counted. […] One unit of NADase activity is defined as 1 pmol NAD hydrolyzed per hour.
Pertussis toxin NADase activity was assayed in the presence of various sulfhydryl reducing agents at various concentrations. The assay buffer contained 1% CHAPS and 1 mM ATP.

[4] = system: S1 -S5 subunits of the toxin; experiment: Labelled iodoacetate incorporation into toxin subunits, electrophoresis and x-ray film (Examples Two and Six); parameters: species or system Bordetella pertussis; conditions: CHAPS added, compared with DTT and ATP or DTT alone
S1 -S5 subunits of the toxin, sequence (P04977 35-269 limits assumed): as above
S1 -S5 subunits of the toxin, sequence (P04978 28-226 limits assumed, further chain): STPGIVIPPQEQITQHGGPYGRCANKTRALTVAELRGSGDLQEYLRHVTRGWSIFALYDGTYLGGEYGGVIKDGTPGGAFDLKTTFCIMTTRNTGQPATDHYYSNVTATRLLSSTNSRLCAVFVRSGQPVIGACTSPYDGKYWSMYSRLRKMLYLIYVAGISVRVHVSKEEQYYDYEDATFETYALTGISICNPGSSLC
S1 -S5 subunits of the toxin, sequence (P04979 29-227 limits assumed, further chain): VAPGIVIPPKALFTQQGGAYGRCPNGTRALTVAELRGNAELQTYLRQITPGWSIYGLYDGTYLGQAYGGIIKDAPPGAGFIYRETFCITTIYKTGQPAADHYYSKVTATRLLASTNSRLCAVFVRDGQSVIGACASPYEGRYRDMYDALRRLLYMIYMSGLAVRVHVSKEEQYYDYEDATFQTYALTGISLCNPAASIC
S1 -S5 subunits of the toxin, sequence (P0A3R5 43-152 limits assumed, further chain): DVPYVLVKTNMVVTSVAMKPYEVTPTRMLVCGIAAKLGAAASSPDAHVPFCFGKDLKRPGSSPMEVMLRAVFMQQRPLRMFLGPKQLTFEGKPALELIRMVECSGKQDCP
S1 -S5 subunits of the toxin, sequence (P04981 35-133 limits assumed, further chain): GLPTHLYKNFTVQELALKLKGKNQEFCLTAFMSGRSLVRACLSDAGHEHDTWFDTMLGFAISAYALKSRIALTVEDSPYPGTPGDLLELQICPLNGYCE
Method: Pertussis toxin (2.5 μg) was incubated for thirty minutes at 37° C. in 50 μl of 50 mM Tris-HCl (pH 8.0) with or without combinations of the activators ATP, CHAPS and DTT. During this incubation, ATP was 1 mM, CHAPS was 1 weight percent, and DTT was 0.5 mM, when present. Following this incubation, 75 nmol (1.34 microCi of iodo[^14 C]acetate and 25 μl of water were then added, and the tubes incubated for an additional thirty minutes under nitrogen gas at 30° C. in the dark. This labelling reaction was terminated by adding 1 ml of ice-cold water containing 7.5 mM non-radioactive iodoacetate, 2.5 μg bovine serum albumin, and 150 μg sodium deoxycholate. After ten minutes on ice, 100 μl 72% triochloroacetic acid was added, and the precipitate recovered by centrifugation. Sodium dodecylsulfate and beta-mercaptoethanol were added, the sample heated to 95° C. for one minute, and then electrophoresed using 15% polyacrylamide gels. The fixed gels were then treated, dried and used to expose x-ray film at -70° C.
as §1

pertussis toxin [5] = target: T1, pertussis toxin; experiment: Effect of detergents on the NADase activity of pertussis toxin (Example Four); format: biochemical; conditions: 1 mM ATP, 10 mM DTT; for Fractional Activity with CHAPS: detergent 1 weight percent plus CHAPS 1%; for Fractional Activity with CHAPS / Fractional Activity without CHAPS: relative to 1% CHAPS alone; for Fractional Activity without CHAPS: detergent 1 weight percent
Method: as §4
The effect of detergents on the NADase activity of pertussis toxin was measured in the presence of various detergents at a concentration of 1 weight percent in either the absence or presence of the detergent CHAPS (1 percent by weight). ATP was present in all assays in a concentration of 1 mM, and DTT concentration was 10 mM. Fractional activity is shown in Table III and is defined as activity divided by activity in the presence of 1% CHAPS. The value given is the average for two separate trials, and in each trial duplicates were measured for each condition.

pertussis toxin [6] = target: T1, pertussis toxin; experiment: Inactivation of NADase activity by sulfhydryl reagents, 6 minutes or 18 hours at 0-4° (Example Eight); format: biochemical
Method: as §2, §3
The procedure followed in Example Seven was repeated for this study, except that N-ethylmaleimide, chloroacetamide or chloroacetate were substituted for iodoacetate. After the 30° C. incubation, the tubes were either incubated for six minutes or eighteen hours at 0°-4° C. before the 10 μl of 200 mM DTT (with or without quenched reagent) was added. Those tubes receiving the DTT after six minutes were incubated for nineteen hours at 0°-4° C. prior to the NADase assay. Those receiving the DTT after eighteen hours were incubated with DTT for one hour, as in Example Seven. The tubes were then assayed for NADase activity at the same time.

pertussis toxin [7] = target: T1, pertussis toxin; experiment: NADase activity of pertussis toxin after activation and treatment with alkylating reagent (Example One); format: biochemical
Excerpt: The ADP-ribosylating activity of the pertussis toxin can be detected as a nicotinamide-adenine dinucleotide-glycohydrolase (NADase) activity, which can be conveniently assayed through the use of [nicotinamide-^14 C] or [nicotinamide-^3 H] NAD. NAD consists of ADP-ribose linked to nicotinimide, and thus the extent of the release of ADP-ribose from NAD is an indication of the ability of the toxin to cause ill effects. In conducting this assay of the hydrolysis of labelled NAD, ion-exchange column chromatography was employed to resolve the product from the substrate according to the method described by Moss et al., J. Biol. Chem. 258, 11879 (1983) which is incorporated herein by reference. However, several modifications to this method were employed. First, a QAE-Sephadex resin was employed, as was a [nicotinamide-^3 H] NAD. Specifically, a 2 ml QAE-Sephadex column was first washed with 10 ml 1NHCl, followed by 10 ml H2 O, 20 ml 0.5M Tris-HCl pH 7.0, and 40 ml H2 O. [^3 H] NAD was applied, and the column washed with 20 ml water to elute impurities. Purified [^3 H] NAD was eluted with 0.25M NaCl, and stored in small aliquots at -70° C. The purified [^3 H] NAD contributed 50 mM NaCl (final concentration) to the NADase assays.
Before the end of the reaction, 2 ml QAE-Sephadex columns were treated with 10 ml 0.1M imidazole-HCl pH 7.0 with 1.0M NaCl, followed by 40 ml water. The NADase reaction (in 100 μl) was terminated by adding 0.85 ml of ice-cold water, and the entire 0.95 ml was pipetted into a treated QAE column. The labelled nicotinamide was then eluted with 3 ml of water directly into a scintillation vial and counted. The absorbed labelled NAD was then eluted into radioactive waste with 10 ml 0.1M imidazole-HCl pH 7.0 with 1.0M NaCl, and the column stored partially immersed in a water bath until the next assay.
In order to determine if any active toxin remained after the inactivation, a large excess of sulfhydryl reductant was added to each tube to scavenge unreacted sulfhydryl reagent. The NADase activity of the preparation was then measured. The three incubations were performed under a nitrogen atmosphere using degassed solutions to prevent oxidation of sulfhydryl groups which would prevent the sulfhydryl reagent from modifying the sulfhydryl group.
as §4
One-half microgram of pertussis toxin was incubated for thirty minutes at […] in 100 mM Tris-HCl (pH 8.0), with or without activators, in a volume of 50 μl. When present, ATP and pyrophosphate were present in a concentration of 2 mM, CHAPS at 2 weight percent, and DTT in a concentration of either 2 mM (trial 1) or 1 mM (trial 2). 10 μl of water with or without iodoacetate or N-ethylmaleimide was then added and a second incubation conducted at 30° C. for either thirty minutes (trial 1) or fifteen minutes (trial 2). After this incubation, 10 μl of 200 mM DTT was added to each tube, and the tubes were incubated for thirty (trial 1) or sixty minutes (trial 2) on ice to scavenge the iodoacetate or N-ethylmaleimide.

[8] = first incubation: ATP, DTT, CHAPS, 6 minutes at 0-4°
[9] = first incubation: ATP, DTT, CHAPS, 18 hours at 0-4°

O[C@H](CS)[C@H](O)CS (racemic) [DTT, dithiothreitol]
remaining activity at 1000 µM (pertussis toxin [1]; read-out: Percent NADase activity relative to iced control): 38%
NADase activity (pertussis toxin [2]): 18 U per microgram toxin and 36 U per microgram toxin
Effectiveness as sulfhydryl reductant to prepare the toxin for deactivation, in words (pertussis toxin [3]): effective
NADase activity (pertussis toxin [3]; 10 mM DTT with 1 mM ATP): 147 U per microgram toxin and 195 U per microgram toxin
EC50 (pertussis toxin [3]; read-out: concentration for half of the maximum effect (A0.5)): 0.2 mM
EC100 (pertussis toxin [3]; read-out: concentration showing full activation): 1000 µM

C[C@H](CCC(=O)NCCC[N+](C)(C)CCCS(=O)(=O)[O-])[C@H]1CC[C@H]2[C@@H]3[C@H](O)C[C@@H]4C[C@H](O)CC[C@]4(C)[C@H]3C[C@H](O)[C@]12C [CHAPS, 3-[(3-cholamidopropyl)-dimethylammonio]-1-propane sulfonate]
Peak indicating the alkylation of the S1 subunit [4]: increases
Peaks indicating alkylation of the S2 and S3 subunits [4]: substantially decreases
NADase activity in the presence of CHAPS alone (pertussis toxin [5]; 1% CHAPS, two trials): 153 units per microgram and 158 units per microgram
NADase activity (pertussis toxin [6]; additions to first incubation only, second incubation none, 18 hours at 0-4°): 186 pmol per μg per hour
Percent NADase activity relative to iced control (pertussis toxin [1]): 106

CCN1C(=O)C=CC1=O [N-ethylmaleimide]
NADase activity (%) of the activity of toxin treated the same way without alkylating agent (pertussis toxin [7]; first incubation: DTT 1 mM, CHAPS 2%, ATP 2 mM, Experiment #2, second incubation 15 min at 30° C, 25 μM NAD): 13%
NADase activity (%) of the activity of toxin treated the same way without alkylating agent (pertussis toxin [7]; first incubation: DTT 1 mM, CHAPS 2%, pyrophosphate 2 mM, Experiment #2, second incubation 15 min at 30° C, 25 μM NAD): 46%
NADase activity (%) of the activity of toxin treated the same way without alkylating agent (pertussis toxin [7]; first incubation: DTT 2 mM, CHAPS 2%, ATP 2 mM, Experiment #1, second incubation 30 min at 30° C, 125 μM NAD): 11%
NADase activity (%) of the activity of toxin treated the same way without alkylating agent (pertussis toxin [7]; first incubation: DTT 2 mM, CHAPS 2%, pyrophosphate 2 mM, Experiment #1, second incubation 30 min at 30° C, 125 μM NAD): 60%
NADase activity (%) of the activity of toxin treated the same way without alkylating agent (pertussis toxin [7]; first incubation: none, Experiment #1, second incubation 30 min at 30° C, 125 μM NAD): 90%
NADase activity (%) of the activity of toxin treated the same way without alkylating agent (pertussis toxin [7]; first incubation: none, Experiment #2, second incubation 15 min at 30° C, 25 μM NAD): 106%
NADase activity (pertussis toxin [6]; [8]): 16 pmol per μg per hour
percent of activity with no addition to second incubation (pertussis toxin [6]; [8]): 15%
NADase activity (pertussis toxin [6]; [9]): 10 pmol per μg per hour
percent of activity with no addition to second incubation (pertussis toxin [6]; [9]): 10%

N[C@@H](CS)C(=O)O [cysteine]
Effectiveness as sulfhydryl reductant to prepare the toxin for deactivation, in words (pertussis toxin [3]): effective
activation constant (pertussis toxin [3]; in the presence of ATP and CHAPS): the same constant

N[C@@H](CCC(=O)N[C@@H](CS)C(=O)NCC(=O)O)C(=O)O [glutathione]
Effectiveness as sulfhydryl reductant to prepare the toxin for deactivation, in words (pertussis toxin [3]): effective
EC50 (pertussis toxin [3]; in the presence of ATP and CHAPS, read-out: activation constant): 2 mM

NP-40
Fractional Activity with CHAPS (pertussis toxin [5]): 0.97
Fractional Activity without CHAPS (pertussis toxin [5]): 0.54

Triton X-100
Fractional Activity with CHAPS (pertussis toxin [5]): 1.05
Fractional Activity without CHAPS (pertussis toxin [5]): 0.58
